The source of these data is US20110038884A1, “IMMUNOPOTENTIATING AGENT COMPRISING EP1 AGONIST” (NATIONAL UNIVERSITY CO., HAMAMATSU UNIVER. SCHOOL OF …, priority 2008, published 2011).

Assay [1] relates to B7-1 (CD80). Description: Expression of cell-surface molecules in cultured Langerhans cells (flow cytometry): B7-1. It counts as cell-based, C57BL/6 mice. Particulars: Compound A 1 μM, Langerhans cells cultured a half-day; control group 5.9. Here is the method: (§1) Using the same procedure as in Example 2 above, the Langerhans cells of C57BL/6 (36) mice were isolated, following which Compound A (1 μM) was added as an EP1 agonist and the cells were cultured for a half-day in a culture medium (cRPMI1640 medium; Sigma-Aldrich Japan). The cultured cells were then stained using antibodies specific to the cell-surface molecules I-A^b, B7-1 (CD80), B7-2 (CD86), CD40 and ICAM-1 (CD54), and changes in the expression of these molecules were analyzed by flow cytometry. An experimental group treated in the same way, excluding the addition of Compound A, was established as a control.
In general terms: A flow cytometer gives signals particle by particle.

Assay [2] deals with ICAM-1 (CD54). Briefly: Expression of cell-surface molecules in cultured Langerhans cells (flow cytometry): ICAM-1. It counts as cell-based, C57BL/6 mice. The conditions noted are these: Compound A 1 μM, Langerhans cells cultured a half-day; control group 36.5. Here is the method:
as §1

For assay [3], the system named is I-A^b. Briefly: Expression of cell-surface molecules in cultured Langerhans cells (flow cytometry): I-A^b. It counts as cell-based, C57BL/6 mice. Particulars: Compound A 1 μM, Langerhans cells cultured a half-day; control group 12.1. Here is the method:
as §1

The subject of assay [4] is B16 melanoma cells. Description: Life-prolonging effects in melanoma-inoculated mice. The class given is in vivo, B6 mice. The conditions noted are these: 8 animals per group. The protocol:
B16 melanoma cells (2×10^5) were transplanted into B6 mice in the same way as in Example 4. On day 5 after transplantation, the respective test substances (TRP-2 (10 μg per side of an auricle), Compound A (20 μL of a 100 μM solution per side of an auricle)) were administered to the right auricles in B6 mice by the same method as in Example 2. The same treatment was carried out ten days later on the left auricle, following which the survival of the mice in each experimental group was examined. The following groups were established as experimental groups (each group being composed of 8 animals): (1) a group in which only TS was carried out, (2) a group in which compound A was applied after TS, and (3) a group in which TRP-2 and Compound A were applied after TS.

The subject of assay [5] is splenic lymphocytes. Description: Splenic lymphocyte proliferative ability test (WST-1). It counts as in vivo, B6 mice. The conditions noted are these: cell proliferation ratio; splenic lymphocytes recovered one week after application after TS, cultured 3 days with IL-2 (10 U/mL); TS-only group 4.2. Here is the method: As in Example 6, TS was carried out, after which Compound A (20 μL of a 100 μM solution per side of an auricle) was applied as the substance. One week after application of the test substance, splenic lymphocytes were recovered, then cultured at 37° C. for 3 days in a culture medium (cRPMI1640 medium: Sigma-Aldrich Japan) containing IL-2 (10 U/mL). Cell proliferative ability tests were carried out using WST-1 (Takara Bio Inc.) as the cell proliferation reagent (absorbance at 450 nm). Experimental groups similar to those in Example 6 were established (with each group containing three animals).
The relative values of the absorption intensities in each experimental group, based on an arbitrary value of 1 for the absorbance at 450 nm when all of the WST-1 added had decomposed to formazan, indicate the percent uptake of WST-1; that is, the cell proliferation ratio.

For assay [6], the system named is TRP-2-specific CTLs in cervical lymph nodes. Description: Activation of cytotoxic T lymphocytes in cervical lymph nodes: TRP-2-specific CTL frequency by tetramer flow cytometry after tape stripping. The conditions noted are these: relative to 100 = total mononucleocytes in cervical lymph nodes; one week after application to tape-stripped auricles; TRP-2 10 mg per side, Compound A 20 μL of 100 μM per side. The class given is in vivo, C57BL/6 (B6) mice.
Description: The corneal layer of the auricles of C57BL/6 (B6) mice was destroyed by repeatedly carrying out (ten times) a stripping operation using adhesive tape, following which an antigen peptide or EP1 agonist was applied as a test substance. Using a solution obtained by dissolving a melanoma-specific antigen peptide (available from Peptide Business Department, Accord K.K.; abbreviated below as TRP-2) as the antigen peptide in 70% ethanol, 10 mg of the antigen peptide was applied per side of an auricle. […] One week after application of the test substance, the cervical lymph nodes were removed. The TRP-2-specific CTL frequency, relative to an arbitrary value of 100 representing the total number of mononucleocytes in the cervical lymph nodes, was determined by flow cytometric analysis (FACScaliber; Becton, Dickinson and Company) with a tetramer (Medical & Biological Laboratories Co., Ltd.). Four experimental groups were established: (1) a group in which only tape stripping (abbreviated below as TS) was carried out, (2) a group in which TRP-2 was applied after TS, (3) a group in which Compound A was applied after TS, and (4) a group in which TRP-2 and Compound A were applied after TS.

The test system of assay [7] is B7-2 (CD86). Briefly: Expression of cell-surface molecules in cultured Langerhans cells (flow cytometry): B7-2. It counts as cell-based, C57BL/6 mice. Particulars: Compound A 1 μM, Langerhans cells cultured a half-day; control group 65.5. Here is the method: as §1
The test system of assay [8] is CD40. Briefly: Expression of cell-surface molecules in cultured Langerhans cells (flow cytometry): CD40. The class given is cell-based, C57BL/6 mice. The conditions noted are these: Compound A 1 μM, Langerhans cells cultured a half-day; control group 28.7. The protocol:
as §1

In assay [9] the test system is NK1.1+ cells. Briefly: Activation of NK1.1+ cells in cervical lymph nodes. It counts as in vivo, B6 mice. The conditions noted are these: relative to 100 = total mononucleocytes in cervical lymph nodes; two weeks after application of 20 μL of 100 μM per side after TS; TS-only group 2.7. Here is the method: As in Example 1, the corneal layer of the auricles of B6 mice was destroyed by repeatedly stripping ten times using adhesive tape, following which an EP1 agonist (Compound A: 20 μL of a 100 μM solution per side of an auricle) was applied as the test substance. Two weeks after application of the test substance, the cervical lymph nodes were removed. The frequency of NK1.1+ cells, relative to an arbitrary value of 100 representing the total number of mononucleocytes in the cervical lymph nodes, was determined by flow cytometric analysis. The following groups were established as experimental groups: (1) a group in which only TS was carried out, and (2) a group in which Compound A was applied after TS.

For assay [10], the system named is EL4 cells not subjected to NP pulsing. Description: NP-specific CTL specific lysis of calcein-labeled EL4 cells, not NP pulsed. The class given is in vivo, C57BL/6 (B6) mice. The conditions noted are these: 3 hours.
Assay [11] deals with NP-pulsed EL4 cells. Description: NP-specific CTL specific lysis of calcein-labeled EL4 cells, NP pulsed. The class given is in vivo, C57BL/6 (B6) mice. Particulars: NP-pulsed EL4 cells (10 μg/mL NP), 3 hours.
For assay [12], the system named is isolated epidermal Langerhans cells. Description: Activation of cytotoxic T lymphocytes in isolated Langerhans cells co-cultured with lymphocytes. It counts as cell-based, C57BL/6 (B6) mouse. The conditions noted are these: relative to 100 = total mononucleocytes in culture medium; TRP-2 10 μg/mL, Compound A 1 μM; 7 days co-culture. Here is the method:
An epidermal cell suspension was prepared by trypsinizing an auricle epidermal sheet removed over a given surface area from the corneal layer on one of the auricles in C57BL/6 (B6) mouse. The resulting epidermal cell suspension was subjected to panning using an antibody specific for I-A^b antigen in order to isolate epidermal Langerhans cells. Each test substance (TRP-2 (concentration, 10 μg/mL) and Compound A (1 μM)) was added to the isolated Langerhans cells (cell density, 10^5 cells/mL), following which the cells were cultured in a culture medium (cRPMI1640 medium; Sigma-Aldrich Japan). After a half-day, the cells were then co-cultured for 7 days with spleen cell lymphocytes isolated from the cervical lymph nodes of B6 mice. The frequency of TRP-2-specific CTLs, relative to an arbitrary value of 100 representing the total number of mononucleocytes in the culture medium, was subsequently determined by flow cytometric analysis (FACScaliber; Becton, Dickinson and Company) with a tetramer (Medical & Biological Laboratories Co., Ltd.). The following groups were established as experimental groups: (1) an untreated group, (2) a group in which TRP-2 was added, and (3) a group in which TRP-2 and Compound A were both added.

Turning to `CCCC[C@H](C)C[C@H](O)/C=C/[C@H]1[C@H](O)CC(=O)[C@@H]1CC(=O)C1CCC(C(=O)O)CC1` (stereo partly drawn) [Compound A, (13E)-(11α,15S,17S)-2,5-Ethano-6,9-dioxo-11,15-dihydroxy-17,20-dimethylprosta-13-enoic acid], the “Expression of each cell-surface molecule (%): B7-1” value in assay [1] worked out at 8.8%. The “Expression of each cell-surface molecule (%): ICAM-1” value in assay [2] was 46.3%. In addition, in assay [3], the “Expression of each cell-surface molecule (%): I-A^b” value was 28.3%. Also, the Number of survivors in assay [4] (day 14 after inoculation of B16 melanoma cells), in [4] (day 16 after inoculation of B16 melanoma cells), in assay [4] (day 24 after inoculation of B16 melanoma cells), in assay [4] (day 25 after inoculation of B16 melanoma cells), in [4] (day 28 after inoculation of B16 melanoma cells) and in assay [4] (day 30 after inoculation of B16 melanoma cells) was 8 each time. Besides, the Number of survivors in assay [4] (day 32 after inoculation of B16 melanoma cells) was 8; in [4] (day 34 after inoculation of B16 melanoma cells) it was 8; in assay [4] (day 36 after inoculation of B16 melanoma cells), 4; in [4] (day 38 after inoculation of B16 melanoma cells) it was 0; in assay [4] (day 41 after inoculation of B16 melanoma cells) it was 0; in [4] (day 44 after inoculation of B16 melanoma cells) it was 0. Also, the Number of survivors in assay [4] (day 46 after inoculation of B16 melanoma cells), in [4] (day 50 after inoculation of B16 melanoma cells), in [4] (day 52 after inoculation of B16 melanoma cells), in [4] (day 55 after inoculation of B16 melanoma cells) and in assay [4] (day 56 after inoculation of B16 melanoma cells) was 0 in each case. Besides, the “Uptake of WST-1 (%)” value in assay [5] is on record as 27.3%. Moreover, in assay [6], the “Ratio of TRP-2-specific CTLs” value was found to be 0.53. In addition, in assay [7], the “Expression of each cell-surface molecule (%): B7-2” value stood at 65.2%. Moreover, the “Expression of each cell-surface molecule (%): CD40” value in [8] is on record as 30.8%. For the same compound, in [9], the “Ratio of NK1.1+ cells” value was 3.6.
As to “NP: influenza virus-specific antigen peptide, nucleoprotein (NP) 366-374, Ala Ser Asn Glu Asn Met Glu Thr Met (ASNENMETM; UniProt P03466 366-374, looked up, fragment)”, the Specific lysis is on record as 1.2% in [10] and 11.9% in assay [11].
In the case of “TRP-2: melanoma-specific antigen peptide, tyrosinase-related protein 2 181-188, Val Tyr Asp Phe Phe Val Trp Leu (VYDFFVWL; Tyrosinase-related protein 2 residues 181-188) [reference compound]”, the results for the “Ratio of TRP-2-specific CTLs” value in [12] and in assay [6] were 3.2 and 0.44, respectively.
